{"source": "patent US20220195533A1", "about": "“ARYL HYDROCARBON RECEPTOR (AHR) ACTIVATION SIGNATURE AND METHODS FOR DETERMINING AHR SIGNALING STATUS” (DEUTSCHES KREBSFORSCHUNGSZENTRUM STIFTUNG DES OFFENTLICHEN …, priority 2019, published 2022)", "system": "AHR", "assay": "AHR signature gene set testing in tumor tissue of advanced melanoma patients after immune checkpoint inhibition", "type": "in vivo, human", "conditions": "tumor tissue of advanced melanoma patients after treatment (GSE91061), FIG. 31C", "source_text": "The eBayes adjusted moderated t-statistic was applied for differential gene expression using limma (Ritchie, M E, et al. (2015). limma powers differential expression analyses for RNA-sequencing and microarray studies. Nucleic Acids Research 43(7), e47) and limma-trend (Phipson, B, et al. (2016). Robust hyperparameter estimation protects against hypervariable genes and improves power to detect differential expression. Annals of Applied Statistics 10(2), 946-963) or the limma RNA-seq pipeline (Ritchie, M E, et al. (2015). limma powers differential expression analyses for RNA-sequencing and microarray studies. Nucleic Acids Research 43(7), e47). Batch effects, when present, were accounted for in the linear regression. Gene set testing of AHR activation was performed using roast (Wu, D., et al. (2010). ROAST: rotation gene set tests for complex microarray experiments. Bioinformatics 26, 2176-2182).\nUsing an AHR signature comprising of all the biomarkers in Table 1, allows the detection of AHR modulation caused by both direct and indirect AHR modulators in a cell type and ligand type independent fashion."}
{"substance": "Nivolumab: immune checkpoint inhibition; indirect modulation of AHR through immunotherapy", "values": [{"measurement": "modulation of AHR detected with AHR signature of all Table 1 biomarkers", "result": "indirect modulation of AHR"}]}
